In ChEMBL document CHEMBL4651402, “Screening of ~5500 FDA-approved drugs and clinical candidates for anti-SARS-CoV-2 activity” (2021):

Test system: SARS-CoV-2
Assay: microbe, parasite or virus in culture
Details: Severe acute respiratory syndrome coronavirus 2, Vero C1008, 48 h

Row | SMILES | IC50 [µM] | IC50 (read-out: pIC50 (converted)) [µM]
1 | O=C(O)C[C@H](NC(=O)[C@@H]1CCCN(C(=O)CCC2CCNCC2)C1)c1cccnc1 [ELAROFIBAN] | > 20 | > 20
2 | C/C(=C(\OCCOc1ccc(Cl)cc1)c1ccc(Cl)cc1Cl)n1ccnc1 | > 20 | > 20
3 | CC1C2Cc3ccc(O)cc3C1(C)CCN2CC1CC1 (stereo unspecified) | > 20 | > 20
4 | O=NN(CCCl)C(=O)NC1CCCCC1 [LOMUSTINE] | > 20 | > 20
5 | O=C(O)C1(C(=O)O)CCC1 | > 20 | > 20
6 | CS(=O)(=O)Nc1cc2occ(NC=O)c(=O)c2cc1Oc1ccccc1 [IGURATIMOD] | > 20 | > 20
7 | CC(C)Nc1nc2cc(Cl)c(Cl)cc2n1[C@H]1O[C@@H](CO)[C@H](O)[C@@H]1O [MARIBAVIR] | > 50.1 | > 50.1
8 | Clc1ccc(C(Cn2ccnc2)OCc2c(Cl)cccc2Cl)cc1 (stereo unspecified) [ORCONAZOLE] | > 20 | > 20
9 | CC(C)(C)c1cnc(CSc2cnc(NC(=O)C3CCNCC3)s2)o1 [BMS-387032] | > 20 | > 20
10 | CCCCN1CCCCC1C(=O)Nc1c(C)cccc1C (stereo unspecified) [BUPIVACAINE] | > 20 | > 20
11 | COc1ccc2c3c([nH]c2c1)C(C)=NCC3 [HARMALINE] | > 20 | > 20
12 | Fc1ccc(NC(=S)Nc2cc(Cl)cc(Cl)c2)cc1 [LOFLUCARBAN] | > 20 | > 20
13 | CCOc1ccc(/N=N/c2ccc(N)cc2N)cc1 [ETHOXAZENE] | > 20 | > 20
14 | CC/C(=C(\c1ccc(OCCN(C)C)cc1)c1cccc(O)c1)c1ccccc1 | > 20 | > 20
15 | COc1ccc(OC)c(C(O)C(C)N)c1 (stereo unspecified) [METHOXAMINE] | > 20 | > 20
16 | c1ccc(C(Cc2noc(CCN3CCCCC3)n2)c2ccccc2)cc1 [PRENOXDIAZINE] | > 20 | > 20
17 | CC(C)(C)c1ccc(OC(=O)[C@H]2CC[C@H](CNC(=N)N)CC2)cc1 [BATEBULAST] | > 20 | > 20
18 | CC(C)(Oc1ccc(Cl)cc1)C(=O)O [CLOFIBRIC ACID] | > 20 | > 20
19 | CCC[C@@H]1C[C@@H](C(=O)NC(C2O[C@H](SC)[C@H](OP(=O)(O)O)[C@@H](O)[C@H]2O)[C@H](C)Cl)N(C)C1 (stereo partly specified) | > 20 | > 20

Row | SMILES | IC50 [µM] | IC50 (read-out: pIC50 (converted)) [µM]
20 | O=C(O)c1cc(-c2ccccc2)nc2ccccc12 [CINCHOPHEN] | > 20 | > 20
21 | Nc1ccc(N)cc1 | > 20 | > 20
22 | N[C@@H]1[C@H]2CN(c3nc4c(cc3F)c(=O)c(C(=O)O)cn4-c3ccc(F)cc3F)C[C@@H]12 [TROVAFLOXACIN] | > 20 | > 20
23 | CCCCOc1nc(N)c2c(n1)N(Cc1cccc(CN3CCCC3)c1)CC(=O)N2 [VESATOLIMOD] | > 20 | > 20
24 | CN(C)c1ccc(-c2ccc3cc(OC[C@@H](O)CF)ccc3n2)cc1 | > 20 | > 20
25 | CNC(=O)c1c(I)c(C(=O)NCC(=O)Nc2c(I)c(C(=O)O)c(I)c(C(=O)NCCO)c2I)c(I)c(N(C)C(C)=O)c1I [IOXAGLIC ACID] | > 20 | > 20
26 | CC12CCC(CC1)C(C)(C)O2 [EUCALYPTOL] | > 20 | > 20
27 | CN(C)C[C@@H]1CCn2cc(c3ccccc32)C2=C(C(=O)NC2=O)c2cn(c3ccccc23)CCO1 [RUBOXISTAURIN] | > 20 | > 20
28 | CC1NCCc2c1[nH]c1ccccc21 (stereo unspecified) [TETRAHYDROHARMAN] | > 20 | > 20
29 | CC[C@@H]1[C@H](F)C(=O)N[C@@H]1COc1nccc2cc(C(N)=O)c(OC)cc12 [ZIMLOVISERTIB] | > 20 | > 20
30 | COc1cc2c3cc1Oc1cc(ccc1O)CC1c4c(cc(OC)c(O)c4Oc4ccc(cc4)CC3N(C)CC2)CC[N+]1(C)C (stereo unspecified) | > 20 | > 20
31 | CNc1ccc(/C=C/c2ccc(OCCOCCOCCF)nc2)cc1 [FLORBETAPIR] | > 20 | > 20
32 | CN1CCCN=C1/C=C/c1cccs1 | > 20 | > 20
33 | COCC1=C(C(=O)OC(C)OC(=O)OC(C)C)N2C(=O)[C@@H](NC(=O)/C(=N\OC)c3csc(N)n3)[C@H]2SC1 (stereo partly specified) [CEFPODOXIME PROXETIL] | > 20 | > 20
34 | CC[C@H]1CN2CCc3cc(OC)c(OC)cc3[C@@H]2C[C@@H]1C[C@H]1NCCc2cc(O)c(OC)cc21 [CEPHAELINE] | > 20 | > 20
35 | CC12CCC(=O)C=C1C=CC1C2CCC2(C)C1CCC2(O)CCC(=O)O (stereo unspecified) | > 20 | > 20
36 | O=C(O)C1CCCN(CCC=C2c3ccccc3CCc3ccccc32)C1 (stereo unspecified) | > 20 | > 20
37 | O=c1[nH]c2ccccc2n1CCN1CCN(c2cccc(C(F)(F)F)c2)CC1 [FLIBANSERIN] | > 20 | > 20
38 | CC(=O)OC1CCC2(C)C(=CCC3C2CCC2(C)C(OC(=O)c4ccccc4)CCC32)C1 (stereo unspecified) | > 20 | > 20
